Experiments:
[1] = system: renal proximal tubule epithelial cells; experiment: Caspase 3/7 activation in renal proximal tubule epithelial cells with cisplatin; format: cell-based, human; conditions: 30 nM-1 uM with cisplatin 25 uM, 50 uM, or 100 uM
Method: Normal renal proximal tubule epithelial cells were obtained from American Type Culture Collection (ATCC, Manassas, Va.). Cells were grown in an incubator at 37° C. in a humidified atmosphere of 5% CO2 in Renal Epithelial Cell Basal Media (ATCC) supplemented with Renal Epithelial Cell Growth Kit (ATCC) in 37° C. humidified incubator. […] Caspase 3/7 activation was measured 24 hours later using the Caspase-Glo 3/7 Assay System (Promega, Madison, Wis.) by following the manufacturer's instructions.
Normal renal proximal tubule epithelial cells were obtained from American Type Culture Collection (ATCC, Manassas, Va.). Cells were grown in an incubator at 37° C. in a humidified atmosphere of 5% CO2 in Renal Epithelial Cell Basal Media (ATCC) supplemented with Renal Epithelial Cell Growth Kit (ATCC) in 37° C. humidified incubator. […] For the γ-H2AX assay, cells were fixed, permeabilized, and stained with anti-γ-H2AX as per the γ-H2AX Flow Kit (Millipore) and quantitated by flow cytometry. Data was analyzed using FlowJo 2.2 software developed by TreeStar, Inc. Caspase 3/7 activation was measured using the Caspase-Glo 3/7 Assay System (Promega, Madison, Wis.) by following the manufacturer's instructions.

blood cell counts [2] = experiment: 5FU-induced myelosuppression, repeated cycles; format: in vivo, C57Bl/6 mice; conditions: 150 mg/kg oral before 5FU 150 mg/kg i.p., every 21 days for 3 cycles
Text: This was repeated every 21 days for 3 cycles. Blood samples were taken for hematology analysis on Day 10 of Cycles 1-3.

[3] = system: RB-intact, Cdk4/6-dependent cell line (WM2664 or tHS68); experiment: EdU proliferation, RB-intact Cdk4/6-dependent cell line; conditions: 24 hours
[4] = system: telomerized human diploid fibroblasts (tHDFs); experiment: Caspase 3/7 activation in tHDF cells with chemotherapy; format: cell-based; conditions: pretreatment before carboplatin, doxorubicin, etoposide, camptothecin, and paclitaxel
Method: Cell survival was determined by Cell TiterGlo assay per manufacturer's recommendations. For both γ-H2AX and caspase 3/7 assays, cells were plated and allowed to become adherent for 24 hours. […] For γ-H2AX, cells were harvested for analysis 8 hours after chemotherapy exposure. For the γ-H2AX assay, cells were fixed, permeabilized, and stained with anti-γ-H2AX as per the γ-H2AX Flow Kit (Millipore) and quantitated by flow cytometry. Data was analyzed using FlowJo 2.2 software developed by TreeStar, Inc. For the in vitro caspase 3/7 assay, cells were harvested 24 hours post chemotherapy treatment. Caspase 3/7 activation was measured using the Caspase-Glo® 3/7 Assay System (Promega) per manufacturer's recommendations.

[5] = system: Rb phosphorylation at Ser780 and Ser807/811; experiment: Rb phosphorylation western blot; format: cell-based; conditions: 300 nM
Method: The Cdk4/6-cyclin D complex is essential for progression from G1 to the S-phase of the DNA cell cycle. This complex phosphorylates the retinoblastoma tumor suppressor protein (Rb). […] Samples were lysed and protein was assayed by western blot analysis. Rb phosphorylation was measured at two sites targeted by the Cdk4/6-cyclin D complex, Ser780 and Ser807/811 using species specific antibodies.

blood cell counts [6] = experiment: 5FU-induced myelosuppression, single dose; format: in vivo, FVB/n female mice; conditions: 150 mg/kg oral, 30 minutes before 5FU 150 mg/kg i.p.
Method: Complete blood cell counts were measured every two days starting on day six.

[7] = system: human renal proximal tubule cells; experiment: DNA cell cycle analysis in human renal proximal tubule cells; format: cell-based; conditions: 24 hours, dose dependent
Text: To test the ability of Cdk4/6 inhibitors to induce a clean G1-arrest in non-hematopoietic cells, G1 arrest was examined in human renal proximal tubule cells. […] At the conclusion of the experiment, cells were harvested, fixed, and stained with propidium iodide (a DNA intercalator), which fluoresces strongly red (emission maximum 637 nm) when excited by 488 nm light. Samples were run on Dako Cyan flow cytometer.

[8] = Metabolic stability in liver microsomes; format: in vitro ADME, human, dog, rat, monkey, and mouse; conditions: each of the species tested
Method: Human, mouse, and dog liver microsomes were purchased from Xenotech, and Sprague-Dawley rat liver microsomes were prepared by Absorption Systems. The reaction mixture comprising 0.5 mg/mL of liver microsomes, 100 mM of potassium phosphate, pH 7.4, 5 mM of magnesium chloride, and 1 uM of test compound was prepared. The test compound was added into the reaction mixture at a final concentration of 1 uM. An aliquot of the reaction mixture (without cofactor) was incubated in shaking water bath at 37 deg. C. for 3 minutes. The control compound, testosterone, was run simultaneously with the test compound in a separate reaction. The reaction was initiated by the addition of cofactor (NADPH), and the mixture was then incubated in a shaking water bath at 37 deg. C. Aliquots (100 μL) were withdrawn at 0, 10, 20, 30, and 60 minutes for the test compound and 0, 10, 30, and 60 minutes for testosterone. […] Test compound samples were analyzed using the Orbitrap high resolution mass spectrometer to quantify the disappearance of parent test compound and detect the appearance of metabolites. […] Half-lives were calculated using GraphPad software, fitting to a single-phase exponential decay equation.
When calculated half-life was longer than the duration of the experiment, the half-life was expressed as >the longest incubation time. The calculated half-life is also listed in parentheses. […]

[9] = system: 456 (395 non-mutant) kinases; experiment: DiscoveRx KINOMEscan kinase profiling; format: binding; conditions: 1000 nM
Method: The compound was screened using a single concentration of 1000 nM (>1000 times the 1050 on Cdk4). Results from this screen confirmed the high potency against Cdk4 and high selectivity versus Cdk2.

For `CN1CCN(c2ccc(Nc3ncc4cc5n(c4n3)C3(CCCCC3)CNC5=O)nc2)CC1` [Compound T], the “caspase 3/7 activation” value [1] was “dose-dependent reduction in caspase 3/7 activation”, the “myelosuppression after repeated 5FU cycles” value (blood cell counts [2]) was “reduced the myelosuppression on Day 10 of the third cycle” and the “effect on proliferation (EdU, percent of cells in S-phase)” value [3] was “inhibits the Rb-positive cell line (tHS68)”. For the same molecule, the “caspase 3/7 activation” value [4] was “robust decrease in caspase 3/7 activation in a dose-dependent manner”, the “time post exposure by which Rb phosphorylation is blocked” value ([5]; Rb-dependent cell lines (tHS68, WM2664)) was ≤ 16 h and the “effect on Rb phosphorylation” value ([5]; Rb-independent cells (A2058)) was “no effect”. The “blood cell counts on day 14 after 5FU” value (blood cell counts [6]) was “significant protection of each cell type at Day 14”, the “recovery of hematopoietic cell lineages after 5FU” value (blood cell counts [6]) was “more rapid recovery” and the “G1 cell cycle arrest” value [7] was “robust G1 cell cycle arrest”. The “half-life in liver microsomes compared with PD0332991” value [8] was “shorter half-life than PD0332991”, the “number of 395 non-mutant kinases inhibited” value ([9]; inhibitory threshold of 65%) was 92 and the “percent of 395 non-mutant kinases inhibited” value ([9]; inhibitory threshold of 65%) was 23.3%. The “number of 395 non-mutant kinases inhibited” value ([9]; inhibitory threshold of 90%) was 31, the “percent of 395 non-mutant kinases inhibited” value ([9]; inhibitory threshold of 90%) was 7.8% and the “number of 395 non-mutant kinases inhibited” value ([9]; inhibitory threshold of 99%) was 6. The “percent of 395 non-mutant kinases inhibited” value ([9]; inhibitory threshold of 99%) was 1.5%.

— patent US9464092B2, “Transient protection of normal cells during chemotherapy” (G1 Therapeutics, Inc., priority 2013, dated 2016)
